Results published in publication PMC6872757 (Heliyon, 2019).

Legend:
Assay in all cases: TR-FRET nuclear receptor binding assay
[1] = biological target: T1, PPARα (Homo sapiens, UniProt Q07869)
T1 sequence (Q07869 1-468): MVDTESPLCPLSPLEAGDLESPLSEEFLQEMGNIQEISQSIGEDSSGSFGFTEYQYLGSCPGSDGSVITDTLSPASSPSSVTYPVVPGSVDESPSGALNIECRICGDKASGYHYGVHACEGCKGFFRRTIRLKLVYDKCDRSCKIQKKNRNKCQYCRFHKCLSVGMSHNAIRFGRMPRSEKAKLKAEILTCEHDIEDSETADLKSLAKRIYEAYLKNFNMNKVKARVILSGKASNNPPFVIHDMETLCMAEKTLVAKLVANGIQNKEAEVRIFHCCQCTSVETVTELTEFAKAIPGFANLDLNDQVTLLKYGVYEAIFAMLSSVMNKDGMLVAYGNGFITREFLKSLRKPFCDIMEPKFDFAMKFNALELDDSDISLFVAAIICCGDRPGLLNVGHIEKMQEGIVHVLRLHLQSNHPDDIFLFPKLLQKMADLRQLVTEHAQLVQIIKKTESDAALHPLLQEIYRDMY

[2] = biological target: T2, PPARδ(β) (Homo sapiens, UniProt Q03181)
T2 sequence (Q03181 1-441): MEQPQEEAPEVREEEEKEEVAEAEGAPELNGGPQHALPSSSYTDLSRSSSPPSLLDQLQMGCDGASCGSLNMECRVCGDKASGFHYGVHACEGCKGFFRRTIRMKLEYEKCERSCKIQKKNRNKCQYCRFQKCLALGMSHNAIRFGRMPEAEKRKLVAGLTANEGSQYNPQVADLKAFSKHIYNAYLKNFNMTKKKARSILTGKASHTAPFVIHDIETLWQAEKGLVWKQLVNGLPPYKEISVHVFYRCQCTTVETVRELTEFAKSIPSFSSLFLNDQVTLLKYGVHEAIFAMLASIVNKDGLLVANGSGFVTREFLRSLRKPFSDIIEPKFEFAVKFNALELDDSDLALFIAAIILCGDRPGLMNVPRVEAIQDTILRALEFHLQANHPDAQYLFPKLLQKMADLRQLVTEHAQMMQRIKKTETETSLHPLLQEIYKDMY

[3] = biological target: T3, PPARγ (Homo sapiens, UniProt P37231)
T3 sequence (P37231 1-505): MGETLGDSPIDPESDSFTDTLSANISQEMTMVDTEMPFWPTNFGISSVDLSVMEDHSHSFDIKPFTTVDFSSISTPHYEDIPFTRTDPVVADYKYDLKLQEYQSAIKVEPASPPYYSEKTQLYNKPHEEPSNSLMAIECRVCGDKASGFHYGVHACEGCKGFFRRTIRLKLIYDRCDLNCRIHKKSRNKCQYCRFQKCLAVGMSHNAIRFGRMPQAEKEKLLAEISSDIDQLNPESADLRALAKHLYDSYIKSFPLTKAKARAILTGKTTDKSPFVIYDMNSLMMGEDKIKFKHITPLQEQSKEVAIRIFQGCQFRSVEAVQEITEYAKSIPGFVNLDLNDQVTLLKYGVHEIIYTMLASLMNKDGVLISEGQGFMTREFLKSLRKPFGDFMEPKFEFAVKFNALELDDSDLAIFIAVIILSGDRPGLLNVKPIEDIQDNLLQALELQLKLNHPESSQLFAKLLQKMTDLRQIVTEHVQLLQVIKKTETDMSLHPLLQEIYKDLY

CC1=C(/C=C/C(C)=C\C=C\C(C)=C\C(=O)O)C(C)(C)CCC1 [9-cis RA]
No binding: EC50 nuclear receptor binding PPARα [1] | EC50 nuclear receptor binding PPARδ(β) [2] | EC50 nuclear receptor binding PPARγ [3]

CC1=C(/C=C/C(C)=C/C=C/C(C)=C/C(=O)O)C(C)(C)CCC1 [ATRA, all-trans retinoic acid]
No binding: EC50 nuclear receptor binding PPARα [1] | EC50 nuclear receptor binding PPARδ(β) [2] | EC50 nuclear receptor binding PPARγ [3]
